Source: US12441703B2, “Carboxamides as modulators of sodium channels” (VERTEX PHARMACEUTICALS INCORPORATED, priority 2019, dated 2025)

Biological target: human NaV 1.8 (Homo sapiens, UniProt Q9Y5Y9)
Assay: E-VIPR assay for detecting and measuring NaV inhibition properties
Type: cell-based
Settings: E-VIPR assay conducted in the presence of human serum; HEK cells expressing truncated human NaV 1.8; read-out: IC50
Source text: Sodium ion channels are voltage-dependent proteins that can be activated by inducing membrane voltage changes by applying electric fields. The electrical stimulation instrument and methods of use, referred to as E-VIPR, are described in International Publication No. WO 2002/008748 A3 and C.-J. Huang et al. Characterization of voltage-gated sodium channel blockers by electrical stimulation and fluorescence detection of membrane potential, 24 Nature Biotech. 439-46 (2006), both of which are incorporated by reference in their entirety. The instrument comprises a microtiter plate handler, an optical system for exciting the coumarin dye while simultaneously recording the coumarin and oxonol emissions, a waveform generator, a current- or voltage-controlled amplifier, and parallel electrode pairs that are inserted into assay plate wells. Under integrated computer control, this instrument passes user-programmed electrical stimulus protocols to cells within the wells of the microtiter plate.
16-20 hours prior to running the assay on E-VIPR, HEK cells expressing a truncated form of human NaV 1.8 with full channel activity were seeded into microtiter 384-well plates, pre-coated with matrigel, at a density of 25,000 cells per well. 2.5-5% KIR2.1 Bacmam virus was added to the final cell suspension before seeding into cell plates. HEK cells were grown in Dulbecco's Modified Eagle's Medium (DMEM) supplemented with 10% FBS (Fetal Bovine Serum, qualified; Sigma #F4135), 1% NEAA (Non-Essential Amino Acids, Gibco #11140), 1% HEPES (Gibco #15630), 1% Pen-Strep (Penicillin-Streptomycin; Gibco #15140) and 5 μg/ml Blasticidin (Gibco #R210-01). Cells were expanded in vented cap cell culture flasks, with 90-95% humidity and 5% CO2.
Compound Loading Buffer (2× concentration): Na/TMA Cl Bath1 Buffer containing HS (omitted in experiments run in the absence of human serum (HS)) 50%, VABSC-1 1 mM, BSA 0.2 mg/ml (in Bath-1), KCl 9 mM, DMSO 0.75%.
• 1) To reach the final concentration in each well, 400 nL of each compound was pre-spotted (in neat DMSO) into polypropylene compound plates at 250× desired final concentration from an intermediate stock concentration of 0.075 mM, in an 11 point dose response, 3-fold dilution, resulting in a top dose of 300 nM final concentration in the cell plate. Vehicle control (neat DMSO), and positive control (an established NaV1.8 inhibitor, 25 μM final in assay in DMSO) were added manually to the outermost columns of each plate respectively. The compound plate was backfilled with 45 μL per well of Compound Loading Buffer resulting in a 250 fold dilution of compound following a 1:1 transfer of compound into the cell plate (see Step 6). Final DMSO concentration for all wells in the assay was 0.625% (0.75% DMSO was supplemented to the Compound Loading Buffer for a final DMSO concentration of 0.625%). This assay dilution protocol was adjusted to enable a higher dose range to be tested in the presence of HS or if the final assay volume was altered. • 2) Hexyl Dye Solution was prepared. • 3) Cell plates were prepared. On the day of the assay, the media was aspirated, and the cells were washed three times with 80 μL of Bath-1 buffer, maintaining 25 μL residual volume in each well. • 4) 25 μL per well of Hexyl Dye Solution was dispensed into the cell plates. The cells were incubated for 20 minutes at room temperature or ambient conditions in darkness. • 5) 45 μL per well of Compound Loading Buffer was dispensed into compound plates. • 6) The cell plates were washed three times with 80 μL per well of Bath-1 Buffer, leaving 25 µL of residual volume. Then 25 μL per well from compound plate was transferred to each cell plate. The mixture was incubated for 30 minutes at room temperature/ambient conditions. • 7) The cell plate containing compound was read on E-VIPR using the current-controlled amplifier to deliver stimulation wave pulses using a symmetrical biphasic waveform. […]

Sequence of human NaV 1.8 (Q9Y5Y9 whole entry, looked up): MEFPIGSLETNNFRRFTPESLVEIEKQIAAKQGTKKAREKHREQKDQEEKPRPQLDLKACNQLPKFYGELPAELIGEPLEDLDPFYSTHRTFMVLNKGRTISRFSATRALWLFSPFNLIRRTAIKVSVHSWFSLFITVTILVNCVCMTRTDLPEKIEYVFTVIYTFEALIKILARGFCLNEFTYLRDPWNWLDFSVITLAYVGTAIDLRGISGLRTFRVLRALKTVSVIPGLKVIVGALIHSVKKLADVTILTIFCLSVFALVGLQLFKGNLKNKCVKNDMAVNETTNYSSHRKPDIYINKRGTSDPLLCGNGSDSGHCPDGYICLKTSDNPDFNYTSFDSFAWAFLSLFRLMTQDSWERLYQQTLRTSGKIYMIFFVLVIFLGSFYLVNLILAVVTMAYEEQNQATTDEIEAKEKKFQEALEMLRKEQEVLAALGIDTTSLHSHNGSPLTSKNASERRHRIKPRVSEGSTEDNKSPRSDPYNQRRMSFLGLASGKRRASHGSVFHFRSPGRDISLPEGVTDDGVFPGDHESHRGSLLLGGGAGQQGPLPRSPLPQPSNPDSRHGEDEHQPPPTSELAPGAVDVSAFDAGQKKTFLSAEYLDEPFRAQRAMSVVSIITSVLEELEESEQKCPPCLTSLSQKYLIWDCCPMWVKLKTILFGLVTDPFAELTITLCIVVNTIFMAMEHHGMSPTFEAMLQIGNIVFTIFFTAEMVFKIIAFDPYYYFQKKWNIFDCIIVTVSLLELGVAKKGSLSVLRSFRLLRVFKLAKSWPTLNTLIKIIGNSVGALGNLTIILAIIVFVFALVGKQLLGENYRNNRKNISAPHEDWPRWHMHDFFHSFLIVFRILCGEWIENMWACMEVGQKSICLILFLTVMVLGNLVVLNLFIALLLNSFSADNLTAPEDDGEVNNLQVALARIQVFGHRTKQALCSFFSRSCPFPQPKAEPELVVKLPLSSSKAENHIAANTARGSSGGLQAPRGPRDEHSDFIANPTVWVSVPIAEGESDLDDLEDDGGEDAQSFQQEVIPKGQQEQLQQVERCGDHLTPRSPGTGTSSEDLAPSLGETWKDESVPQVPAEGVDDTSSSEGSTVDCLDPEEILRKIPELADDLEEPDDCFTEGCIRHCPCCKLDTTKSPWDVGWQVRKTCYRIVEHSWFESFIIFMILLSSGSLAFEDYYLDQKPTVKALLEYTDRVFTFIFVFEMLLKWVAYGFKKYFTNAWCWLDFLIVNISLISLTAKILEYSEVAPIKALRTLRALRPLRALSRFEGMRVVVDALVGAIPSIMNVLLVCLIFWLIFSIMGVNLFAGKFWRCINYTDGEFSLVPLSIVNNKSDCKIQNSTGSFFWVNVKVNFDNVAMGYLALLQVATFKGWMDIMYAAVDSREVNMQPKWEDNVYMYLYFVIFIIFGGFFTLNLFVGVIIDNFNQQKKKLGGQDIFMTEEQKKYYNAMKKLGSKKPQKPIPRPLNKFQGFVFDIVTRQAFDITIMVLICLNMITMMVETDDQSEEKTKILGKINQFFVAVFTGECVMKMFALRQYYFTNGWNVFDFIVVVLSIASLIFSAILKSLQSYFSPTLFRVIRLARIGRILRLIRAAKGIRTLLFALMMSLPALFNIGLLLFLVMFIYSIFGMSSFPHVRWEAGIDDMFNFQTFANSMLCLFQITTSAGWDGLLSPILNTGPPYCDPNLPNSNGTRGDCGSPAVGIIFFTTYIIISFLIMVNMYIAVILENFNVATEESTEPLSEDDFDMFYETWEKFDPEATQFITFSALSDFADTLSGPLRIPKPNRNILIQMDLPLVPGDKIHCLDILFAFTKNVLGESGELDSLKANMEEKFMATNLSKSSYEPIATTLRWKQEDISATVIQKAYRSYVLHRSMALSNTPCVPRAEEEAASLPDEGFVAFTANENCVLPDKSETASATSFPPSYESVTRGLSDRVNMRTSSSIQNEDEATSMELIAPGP

Compared with `COc1ccc(Cl)cc1Oc1ccc(C(F)(F)F)c(F)c1C(=O)Nc1ccnc(C(N)=O)c1` [Compound 27, 4-[[6-(5-chloro-2-methoxy-phenoxy)-2-fluoro-3-(trifluoromethyl)benzoyl]amino]pyridine-2-carboxamide], `COc1cc(Cl)ccc1Oc1ccc(C(F)(F)F)c(F)c1C(=O)Nc1ccnc(C(N)=O)c1` [Compound 43, 4-[[6-(4-chloro-2-methoxy-phenoxy)-2-fluoro-3-(trifluoromethyl)benzoyl]amino]pyridine-2-carboxamide] is 13-fold lower in IC50: 170 nM for the first, 13 nM for the second. The second is the more potent here.

`CC(C)Oc1ccc(Oc2ccc(C(F)(F)F)c(F)c2C(=O)Nc2ccnc(C(N)=O)c2)cc1F` [Compound 28, 4-[[2-fluoro-6-(3-fluoro-4-isopropoxy-phenoxy)-3-(trifluoromethyl)benzoyl]amino]pyridine-2-carboxamide] and `CC(C)Oc1ccc(Oc2ccc(C(F)(F)F)c(F)c2C(=O)Nc2ccnc(C(N)=O)c2)cc1Cl` [Compound 33, 4-[[6-(3-chloro-4-isopropoxy-phenoxy)-2-fluoro-3-(trifluoromethyl)benzoyl]amino]pyridine-2-carboxamide] are within 1.5-fold of each other in IC50: 24 nM for the first, 17 nM for the second.

`CCOc1ccc(Oc2ccc(C(F)(F)F)c(F)c2C(=O)Nc2ccnc(C(N)=O)c2)cc1F` [Compound 29, 4-[[6-(4-ethoxy-3-fluoro-phenoxy)-2-fluoro-3-(trifluoromethyl)benzoyl]amino]pyridine-2-carboxamide] and `CCOc1ccc(Oc2ccc(C(F)(F)F)c(F)c2C(=O)Nc2ccnc(C(N)=O)c2)cc1Cl` [Compound 38, 4-[[6-(3-chloro-4-ethoxy-phenoxy)-2-fluoro-3-(trifluoromethyl)benzoyl]amino]pyridine-2-carboxamide] are within 1.5-fold of each other in IC50: 45 nM for the first, 43 nM for the second.

Compared with `NC(=O)c1cc(NC(=O)c2c(Oc3ccc(F)c4c3OCC4)ccc(C(F)(F)F)c2F)ccn1` [Compound 30, 4-[[2-fluoro-6-[(4-fluoro-2,3-dihydrobenzofuran-7-yl)oxy]-3-(trifluoromethyl)benzoyl]amino]pyridine-2-carboxamide], `Cc1c(Oc2ccc(C(F)(F)F)c(F)c2C(=O)Nc2ccnc(C(N)=O)c2)ccc(F)c1F` [Compound 42, 4-[[6-(3,4-difluoro-2-methyl-phenoxy)-2-fluoro-3-(trifluoromethyl)benzoyl]amino]pyridine-2-carboxamide] is 5.4-fold lower in IC50: 43 nM for the first, 8 nM for the second. The second is the more potent here.

First: COc1c(Oc2ccc(C(F)(F)F)c(F)c2C(=O)Nc2ccnc(C(N)=O)c2)ccc(F)c1F [Compound 31, 4-[[6-(3,4-difluoro-2-methoxy-phenoxy)-2-fluoro-3-(trifluoromethyl)benzoyl]amino]pyridine-2-carboxamide]
Second: NC(=O)c1cc(NC(=O)c2c(Oc3ccc(F)c(F)c3F)ccc(C(F)(F)F)c2F)ccn1 [Compound 49, 4-[[2-fluoro-3-(trifluoromethyl)-6-(2,3,4-trifluorophenoxy)benzoyl]amino]pyridine-2-carboxamide]
The IC50 of the first is 4.7-fold lower: 9 nM for the first, 42 nM for the second.

Going from `Cc1cc(Oc2ccc(C(F)(F)F)c(F)c2C(=O)Nc2ccnc(C(N)=O)c2)ccc1F` [Compound 32, 4-[[2-fluoro-6-(4-fluoro-3-methyl-phenoxy)-3-(trifluoromethyl)benzoyl]amino]pyridine-2-carboxamide] to `Cc1cc(Cl)ccc1Oc1ccc(C(F)(F)F)c(F)c1C(=O)Nc1ccnc(C(N)=O)c1` [Compound 50, 4-[[6-(4-chloro-2-methyl-phenoxy)-2-fluoro-3-(trifluoromethyl)benzoyl]amino]pyridine-2-carboxamide], the IC50 falls from 200 nM to 33 nM (6.1-fold). The second is the more potent here.

Going from `COc1c(F)cccc1Oc1ccc(C(F)(F)F)c(F)c1C(=O)Nc1ccnc(C(N)=O)c1` [Compound 34, 4-[[2-fluoro-6-(3-fluoro-2-methoxy-phenoxy)-3-(trifluoromethyl)benzoyl]amino]pyridine-2-carboxamide] to `Cc1c(F)ccc(Oc2ccc(C(F)(F)F)c(F)c2C(=O)Nc2ccnc(C(N)=O)c2)c1C` [Compound 48, 4-[[2-fluoro-6-(4-fluoro-2,3-dimethyl-phenoxy)-3-(trifluoromethyl)benzoyl]amino]pyridine-2-carboxamide], the IC50 falls from 120 nM to 50 nM (2.4-fold). The second is the more potent here.

Going from `NC(=O)c1cc(NC(=O)c2c(Oc3ccc(OC4CCCCC4)cc3)ccc(C(F)(F)F)c2F)ccn1` [Compound 35, 4-[[6-[4-(cyclohexoxy)phenoxy]-2-fluoro-3-(trifluoromethyl)benzoyl]amino]pyridine-2-carboxamide] to `NC(=O)c1cc(NC(=O)c2c(Oc3cccc(C4CCCCC4)c3)ccc(C(F)(F)F)c2F)ccn1` [Compound 40, 4-[[6-(3-cyclohexylphenoxy)-2-fluoro-3-(trifluoromethyl)benzoyl]amino]pyridine-2-carboxamide], the IC50 rises from 510 nM to over 3000 nM. The first is the more potent here.

`CC(F)(F)c1cc(F)ccc1Oc1ccc(C(F)(F)F)c(F)c1C(=O)Nc1ccnc(C(N)=O)c1` [Compound 36, 4-[[6-[2-(1,1-difluoroethyl)-4-fluoro-phenoxy]-2-fluoro-3-(trifluoromethyl)benzoyl]amino]pyridine-2-carboxamide] and `NC(=O)c1cc(NC(=O)c2c(Oc3ccc(Cl)cc3F)ccc(C(F)(F)F)c2F)ccn1` [Compound 51, 4-[[6-(4-chloro-2-fluoro-phenoxy)-2-fluoro-3-(trifluoromethyl)benzoyl]amino]pyridine-2-carboxamide] are within 1.5-fold of each other in IC50: 180 nM for the first, 200 nM for the second.

Compared with `CC(C)Oc1ccc(Oc2ccc(C(F)(F)F)c(F)c2C(=O)Nc2ccnc(C(N)=O)c2)cc1` [Compound 37, 4-[[2-fluoro-6-(4-isopropoxyphenoxy)-3-(trifluoromethyl)benzoyl]amino]pyridine-2-carboxamide], `NC(=O)c1cc(NC(=O)c2c(Oc3ccc(C(F)(F)F)nc3)ccc(C(F)(F)F)c2F)ccn1` [Compound 39, 4-[[2-fluoro-3-(trifluoromethyl)-6-[[6-(trifluoromethyl)-3-pyridyl]oxy]benzoyl]amino]pyridine-2-carboxamide] is higher in IC50: 26 nM for the first, over 3000 nM for the second. The first is the more potent here.

First: NC(=O)c1cc(NC(=O)c2c(Oc3ccc(OC(F)(F)F)cc3C3CC3)ccc(C(F)(F)F)c2F)ccn1 [Compound 41, 4-[[6-[2-cyclopropyl-4-(trifluoromethoxy)phenoxy]-2-fluoro-3-(trifluoromethyl)benzoyl]amino]pyridine-2-carboxamide]
Second: COc1cc(C(F)(F)C(F)(F)F)ccc1Oc1ccc(C(F)(F)F)c(F)c1C(=O)Nc1ccnc(C(N)=O)c1 [Compound 44, 4-[[2-fluoro-6-[2-methoxy-4-(1,1,2,2,2-pentafluoroethyl)phenoxy]-3-(trifluoromethyl)benzoyl]amino]pyridine-2-carboxamide]
The IC50 of the first is 2.2-fold lower: 10 nM for the first, 22 nM for the second.

First: COc1cc(C)cc(OC)c1Oc1ccc(C(F)(F)F)c(F)c1C(=O)Nc1ccnc(C(N)=O)c1 [Compound 45, 4-[[6-(2,6-dimethoxy-4-methyl-phenoxy)-2-fluoro-3-(trifluoromethyl)benzoyl]amino]pyridine-2-carboxamide]
Second: COc1cc(F)ccc1Oc1ccc(C(F)(F)F)c(OC)c1C(=O)Nc1ccnc(C(N)=O)c1 [Compound 52, 4-[[6-(4-fluoro-2-methoxy-phenoxy)-2-methoxy-3-(trifluoromethyl)benzoyl]amino]pyridine-2-carboxamide]
The IC50 of the first is higher: over 3000 nM for the first, 170 nM for the second.

Going from `NC(=O)c1cc(NC(=O)c2c(Oc3c(F)cc(F)cc3F)ccc(C(F)(F)F)c2F)ccn1` [Compound 46, 4-[[2-fluoro-3-(trifluoromethyl)-6-(2,4,6-trifluorophenoxy)benzoyl]amino]pyridine-2-carboxamide] to `Cc1cc(Cl)cc(Cl)c1Oc1ccc(C(F)(F)F)c(F)c1C(=O)Nc1ccnc(C(N)=O)c1` [Compound 47, 4-[[6-(2,4-dichloro-6-methyl-phenoxy)-2-fluoro-3-(trifluoromethyl)benzoyl]amino]pyridine-2-carboxamide], the IC50 falls from over 3000 nM to 1400 nM. The second is the more potent here.
